Experiments:
[1] = tested on: patients with probable MSA; format: in vivo, human; conditions: oral 200 mg daily
Description: Five patients fulfilled the consensus criteria for “probable MSA” and received oral Nilotinib 200 mg daily for 24 weeks. Disease progression was monitored every 4 weeks by measuring the patient's motor and non-motor symptoms with the Unified Multiple System Atrophy Rating Scale (UMSARS). Mini Mental State Examination (MMSE) was used to screen for cognitive impairment. […] However, these AEs resolved with continued administration of the drug. […] Furthermore, there was a significant decline of 6.8 and 2.2 points in the UMSARS and UMSARS-II, respectively, compared to baseline (see FIG. 2). MMSE results were normal throughout treatment.

[2] = tested on: patient with probable multiple system atrophy; format: in vivo, human; conditions: single MSA patient, oral Nilotinib 200 mg
Text: A person who presented with inability to walk. The disease started 4 years ago with a slowing of their gait and tremors at rest in both hands. […] They had been experiencing dizziness, dysphagia during the past year, and urinary urgency during the previous six months.
Upon admission, the patient could not walk without assistance and needed intermittent bladder catheterization because of urinary incontinence. […] Informed consent was obtained from the patient and their family before treatment of oral Nilotinib 200 mg […]. The monthly monitoring included a physical and a neurological exam, an electrocardiogram, and complete blood count and chemistry.

PD and DLB subjects = conditions: 24 weeks of treatment with 300 mg Nilotinib; cited from earlier work
[3] = average of five MSA patients, 24 weeks

## Cc1cn(-c2cc(NC(=O)c3ccc(C)c(Nc4nccc(-c5cccnc5)n4)c3)cc(C(F)(F)F)c2)cn1 [Nilotinib]
[1]; [3]
  decline in the UMSARS compared to baseline: 6.8 points
  decline in the UMSARS-II compared to baseline: 2.2 points
[1]; five MSA patients, end of 24 weeks
  non-motor symptoms (swallowing, constipation, urinary function): improvement of non-motor symptoms
[2]; 24 weeks
  non-motor symptoms (swallowing, constipation, urinary function): significant improvement of non-motor symptoms
[2]; 24 weeks, could not walk without assistance upon admission
  walking ability at the end of the study: could walk slowly without assistance
[2]; 24 weeks, no hospitalization, resolved with continuous use
  nonserious adverse events: mild skin irritation, dizziness, and mild headache
[2]; week 24
  decrease on the UMSARS compared with baseline: 11 points
  decrease on the UMSARS-II compared with baseline: 6 points
PD and DLB subjects
  decline in UPDRS I-IV: 11.1 points
